Molecules are shown by their SMILES.

Consider 13 compounds from PubChem BioAssay AID504560 (Southern Research Specialized Biocontainment Screening …, 2011).

For this experiment, the system named is human PBMC HIV-1 CCR5-tropic replication, RT activity. Kind of experiment: antiviral activity, R5 HIV-1 in human PBMC – cell-based, set 2, dose response (AID 504560).
Broadly, the IC50 is the concentration that inhibits the measured activity by half. With `COc1ccccc1Cn1c(O)cc2nn(-c3nc4ccccc4s3)c(=O)c-2c1C`, the IC50 is 5400 nM.

For the compound `Cc1c2c(=O)n(-c3nc4ccccc4s3)nc-2cc(O)n1CCc1ccc(O)cc1`, the IC50 is 1510 nM. To `Cc1c2c(=O)n(-c3nc4ccccc4s3)nc-2cc(O)n1CCc1cccs1` belongs 3470 nM. For `Cc1c2c(=O)n(-c3nc4ccccc4s3)nc-2cc(O)n1Cc1cccnc1`, the IC50 is 920 nM. To `Cc1c2c(=O)n(-c3nc4ccccc4s3)nc-2cc(O)n1Cc1ccncc1` belongs 1890 nM; to `Cc1c2c(=O)n(-c3nc4ccccc4s3)nc-2cc(O)n1Cc1ccccc1Cl`, 6310 nM.

Take `Cc1c2c(=O)n(-c3nc4ccccc4s3)nc-2cc(O)n1C1CC1`: the IC50 was 720 nM.

For the compound `Cc1c2c(=O)n(-c3nc4ccccc4s3)nc-2cc(O)n1Cc1cccs1`, the IC50 is 1970 nM. As to `Cc1c2c(=O)n(-c3nc4ccccc4s3)nc-2cc(O)n1Cc1ccccc1`, the IC50 is 2420 nM. For `COc1ccc(Cn2c(O)cc3nn(-c4nc5ccccc5s4)c(=O)c-3c2C)cc1`, the IC50 was 2290 nM. With `Cc1c2c(=O)n(-c3nc4ccccc4s3)nc-2cc(O)n1CCC(C)C`, the IC50 is 5400 nM. With `COc1ccc(CCn2c(O)cc3nn(-c4nc5ccccc5s4)c(=O)c-3c2C)cc1`, the IC50 was 6110 nM. Take `Cc1c2c(=O)n(-c3nc4ccccc4s3)nc-2cc(O)n1Cc1ccc(F)cc1`: the IC50 is 3140 nM.
